Values quoted from earlier work as cited in patent US4795743A, “2'-deamino-2'-hydroxyistamycin Bo derivatives of low toxicity” (Zaidan Hojin Biseibutsu Kagaku Kenkyu Kai, priority 1986, dated 1989).

Tested on: resistant bacteria, Pseudomonas aeruginosa, resistant strains of gram-negative and gram-positive bacteria
Conditions: background, earlier filings; cited from earlier work

For CNCC1CCC(N)C(OC2C(N)CC(O)C(N(C)C(=O)CN)C2O)O1 (stereo not shown) [3-O-demethylistamycin B], the antibacterial activity is listed as “active against resistant bacteria, Pseudomonas aeruginosa and also against a variety of resistant strains of gram-negative and gram-positive bacteria”.
